The test system of assay [1] is NA transporter. Nature of the assay: Inhibition of noradrenaline uptake in rat brain synaptosomes. It counts as biochemical. Particulars: Table III.
For assay [2], the target named is T1, 5-HT transporter (Rattus norvegicus, UniProt P31652).
T1 construct: synaptosomes of rat brain areas are freshly isolated; from tissue; host or cells: rat brain synaptosomes (P2 fraction) from marrow and pons
Nature of the assay: Inhibition of 5-HT uptake in rat brain synaptosomes. It counts as biochemical. Particulars: Table III, rat, 1 μM; for inhibition at 1 µM: read-out: Uptake 5-HT, % inhibition.

Assay [3] concerns batrachotoxin (BTX) binding site of the sodium channel. Nature of the assay: Affinity to the batrachotoxin (BTX) binding site of the sodium channel. Particulars: Table III; rat cerebrocortex synaptosomes; test concentration not given.

We go through 31 compounds from patent publication US7951815B2, “Substituted 1,4,8-triazaspiro [4,5]decan-2-one compounds” (Gruenenthal GmbH, priority 2004, dated 2011).

T1 sequence (P31652 whole entry): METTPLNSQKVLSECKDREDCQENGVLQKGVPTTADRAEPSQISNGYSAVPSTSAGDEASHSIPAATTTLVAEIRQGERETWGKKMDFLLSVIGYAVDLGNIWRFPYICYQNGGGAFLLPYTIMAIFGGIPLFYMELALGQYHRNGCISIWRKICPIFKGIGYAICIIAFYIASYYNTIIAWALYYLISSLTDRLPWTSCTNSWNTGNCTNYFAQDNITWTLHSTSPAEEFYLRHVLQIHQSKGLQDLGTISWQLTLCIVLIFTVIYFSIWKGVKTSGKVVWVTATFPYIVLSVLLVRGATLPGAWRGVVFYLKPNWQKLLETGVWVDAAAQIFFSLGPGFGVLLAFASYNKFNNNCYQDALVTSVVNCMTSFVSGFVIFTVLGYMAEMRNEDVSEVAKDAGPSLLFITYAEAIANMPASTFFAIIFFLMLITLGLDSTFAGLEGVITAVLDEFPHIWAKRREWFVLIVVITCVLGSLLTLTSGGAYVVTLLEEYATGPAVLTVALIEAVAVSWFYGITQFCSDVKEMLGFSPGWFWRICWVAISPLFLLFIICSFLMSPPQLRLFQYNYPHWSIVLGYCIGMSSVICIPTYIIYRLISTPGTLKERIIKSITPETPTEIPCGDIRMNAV

Regarding `CC(C)CC1NC2(CCN(C(=O)COCc3ccccc3)CC2)NC1=O` (centres unmarked) [Example 80, 8-(2-Benzyloxyacetyl)-3-isobutyl-1,4,8-triazaspiro[4,5]decan-2-one], the “Uptake (NA), rat, 10 μM, % inhibition” value in assay [1] came to 30%.

`CC(C)CC1NC2(CCN(C(=O)c3sccc3Cl)CC2)NC1=O` (centres unmarked) [Example 94, 8-(3-Chlorothiophene-2-carbonyl)-3-isobutyl-1,4,8-triazaspiro[4,5]decan-2-one]: in assay [1], the “Uptake (NA), rat, 10 μM, % inhibition” value turned out to be 38%.

For the compound `CC(C)C1NC2(CCN(C(=O)c3c(F)c(F)c(F)c(F)c3F)CC2)NC1=O` (centres unmarked) [Example 95, 3-Isopropyl-8-pentafluorobenzoyl-1,4,8-triazaspiro[4,5]decan-2-one], in assay [1], the “Uptake (NA), rat, 10 μM, % inhibition” value was 31%.

`Cc1cccc(C(=O)N2CCC3(CC2)NC(=O)C(Cc2ccccc2)N3)c1C` (centres unmarked) [Example 108, 3-Benzyl-8-(2,3-dimethylbenzoyl)-1,4,8-triazaspiro[4,5]decan-2-one]: the “Uptake (NA), rat, 10 μM, % inhibition” value in assay [1] is given as 37%.

Take `CSCCC1NC2(CCN(C(=O)c3cccnc3Oc3ccccc3)CC2)N(C)C1=O` (centres unmarked) [Example 120, 1-Methyl-3-(2-methylsulfanylethyl)-8-(2-phenoxypyridin-3-carbonyl)-1,4,8-triazaspiro[4,5]decan-2-one]: the “Uptake (NA), rat, 10 μM, % inhibition” value in assay [1] is given as 32%.

Take `O=C(C1CCCCC1)N1CCC2(CC1)NCC(=O)N2CCOc1ccccc1` [Example 123, 8-Cyclohexanecarbonyl-1-(2-phenoxyethyl)-1,4,8-triazaspiro[4,5]decan-2-one]: the “Uptake (NA), rat, 10 μM, % inhibition” value in assay [1] is reported as 36%.

In the case of `CSCCC1NC2(CCN(C(=O)c3ccc4c(c3)OCO4)CC2)N(Cc2cccc(C#N)c2)C1=O` (centres unmarked) [Example 138, 3-[8-(Benzo[1,3]dioxol-5-carbonyl)-3-(2-methylsulfanylethyl)-2-oxo-1,4,8-triazaspiro[4,5]dec-1-ylmethyl]benzonitrile], the “Uptake (NA), rat, 10 μM, % inhibition” value in assay [1] is on record as 30%.

Take `C=CCCC(=O)N1CCC2(CC1)NC(Cc1ccccc1)C(=O)N2C` (centres unmarked) [Example 139, 3-Benzyl-1-methyl-8-pent-4-enoyl-1,4,8-triazaspiro[4,5]decan-2-one]: the “Uptake (NA), rat, 10 μM, % inhibition” value in assay [1] is 31%.

For the compound `CN1C(=O)C(Cc2ccccc2)NC12CCN(C(=O)c1ccc([N+](=O)[O-])cc1)CC2` (centres unmarked) [Example 238, 3-Benzyl-1-methyl-8-(4-nitrobenzoyl)-1,4,8-triazaspiro[4,5]decan-2-one], in assay [1], the “Uptake (NA), rat, 10 μM, % inhibition” value is listed as 31%.

Take `CSCCC1NC2(CCN(C(=O)c3c(Cl)ccc(C)c3F)CC2)N(Cc2ccccc2)C1=O` (centres unmarked) [Example 240, 1-Benzyl-8-(6-chloro-2-fluoro-3-methylbenzoyl)-3-(2-methylsulfanylethyl)-1,4,8-triazaspiro[4,5]decan-2-one]: the inhibition at 1 µM in assay [2] is 54%. In assay [3], the BTX inhibition came to 30.

Consider `CCCCN1C(=O)C(Cc2ccccc2)NC12CCN(C(=O)c1cc(C(C)(C)C)nn1C)CC2` (centres unmarked) [Example 249, 3-Benzyl-1-butyl-8-(5-tert-butyl-2-methyl-2H-pyrazole-3-carbonyl)-1,4,8-triazaspiro[4,5]decan-2-one], for which the inhibition at 1 µM in assay [2] worked out at 55%. Moreover, the BTX inhibition in assay [3] is 34.

Turning to `CCSc1ncccc1C(=O)N1CCC2(CC1)NC(CC(C)C)C(=O)N2CCCCOC(C)=O` (centres unmarked) [Example 257, Butyl 4-[8-(2-ethylsulfanylpyridin-3-carbonyl)-3-isobutyl-2-oxo-1,4,8-triazaspiro[4,5]dec-1-yl]acetate], the “Uptake 5-HT, rat, 1 μM, % inhibition” value in assay [2] was 59%. The compound further registered a BTX inhibition in assay [3] of 35.

Turning to `O=C(c1ccc(-c2ccccc2)cc1)N1CCC2(CC1)NCC(=O)N2Cc1ccccc1F` [Example 262, 8-(Biphenyl-4-carbonyl)-1-(2-fluorobenzyl)-1,4,8-triazaspiro[4,5]decan-2-one], in assay [2], the inhibition at 1 µM worked out at 60%. In assay [3], this compound yielded a BTX inhibition of 70.

In the case of `CC(C)CC1NC2(CCN(C(=O)c3ccc4nonc4c3)CC2)N(Cc2c(Cl)cccc2Cl)C1=O` (centres unmarked) [Example 275, 8-(Benzo[1,2,5]oxadiazole-5-carbonyl)-1-(2,6-dichlorobenzyl)-3-isobutyl-1,4,8-triazaspiro[4,5]decan-2-one], the inhibition at 1 µM in assay [2] was found to be 33%. The compound also gave a BTX inhibition in assay [3] of 61.

`CC(C)CC1NC2(CCN(C(=O)c3ccc(Cl)nc3)CC2)N(Cc2c(Cl)cccc2Cl)C1=O` (centres unmarked) [Example 279, 8-(6-Chloropyridin-3-carbonyl)-1-(2,6-dichlorobenzyl)-3-isobutyl-1,4,8-triazaspiro[4,5]decan-2-one]: in assay [2], the inhibition at 1 µM is 48%. Further, the BTX inhibition in assay [3] was found to be 60.

Take `COc1ccc(C(=O)N2CCC3(CC2)NCC(=O)N3Cc2ccccc2F)cc1` [Example 285, 1-(2-Fluorobenzyl)-8-(4-methoxybenzoyl)-1,4,8-triazaspiro[4,5]decan-2-one]: in assay [2], the inhibition at 1 µM was found to be 65%. For the same compound, the BTX inhibition in assay [3] amounted to 32.

In the case of `CCOC(=O)CN1C(=O)C(CC(C)C)NC12CCN(C(=O)CC(C)C)CC2` (centres unmarked) [Example 288, Ethyl [3-isobutyl-8-(3-methylbutyryl)-2-oxo-1,4,8-triazaspiro[4,5]dec-1-yl]acetate], the inhibition at 1 µM in assay [2] amounted to 45%. In assay [3], this compound had a BTX inhibition of 32.

Turning to `CCCC(C)C(=O)N1CCC2(CC1)NC(CC(C)C)C(=O)N2CC(=O)OCC` (centres unmarked) [Example 291, Ethyl [3-isobutyl-8-(2-methylpentanoyl)-2-oxo-1,4,8-triazaspiro[4,5]dec-1-yl]acetate], the inhibition at 1 µM in assay [2] worked out at 38%. Besides, in assay [3], the BTX inhibition was found to be 33.

For the compound `COC(=O)c1ccc(CN2C(=O)CNC23CCN(C(=O)c2cc(C(C)(C)C)oc2C)CC3)cc1` [Example 292, Methyl 4-[8-(5-tert-butyl-2-methylfuran-3-carbonyl)-2-oxo-1,4,8-triazaspiro[4,5]dec-1-ylmethyl]benzoate], the inhibition at 1 µM in assay [2] amounted to 40%. Also, the BTX inhibition in assay [3] came out at 40.

In the case of `CCOC(=O)CN1C(=O)C(Cc2ccccc2)NC12CCN(C(=O)C1CC1)CC2` (centres unmarked) [Example 293, Ethyl (3-benzyl-8-cyclopropanecarbonyl-2-oxo-1,4,8-triazaspiro[4,5]dec-1-yl)acetate], the inhibition at 1 µM in assay [2] came out at 55%. In assay [3], this compound came in with a BTX inhibition of 31.

For `CCOC(=O)CN1C(=O)C(Cc2ccccc2)NC12CCN(C(=O)CC(C)C)CC2` (centres unmarked) [Example 294, Ethyl [3-benzyl-8-(3-methylbutyryl)-2-oxo-1,4,8-triazaspiro[4,5]dec-1-yl]acetate], in assay [2], the inhibition at 1 µM is 53%. In assay [3], this compound registered a BTX inhibition of 33.

As to `C=CCN1C(=O)C(C(C)C)NC12CCN(C(=O)Cc1cccc(OC)c1)CC2` (centres unmarked) [Example 296, 1-Allyl-3-isopropyl-8-[2-(3-methoxyphenyl)acetyl]-1,4,8-triazaspiro[4,5]decan-2-one], the inhibition at 1 µM in assay [2] was found to be 30%. The compound further returned a BTX inhibition in assay [3] of 36.

As for `CCCCC(=O)N1CCC2(CC1)NC(Cc1ccccc1)C(=O)N2CC(=O)OCC` (centres unmarked) [Example 299, Ethyl (3-benzyl-2-oxo-8-pentanoyl-1,4,8-triazaspiro[4,5]dec-1-yl)acetate], the inhibition at 1 µM in assay [2] was determined as 66%. The compound further showed a BTX inhibition in assay [3] of 36.

Take `COC(=O)c1ccc(CN2C(=O)CNC23CCN(C(=O)c2ccc(C(C)(C)C)cc2)CC3)cc1` [Example 305, Methyl 4-[8-(4-tert-Butylbenzoyl)-2-oxo-1,4,8-triazaspiro[4,5]dec-1-ylmethyl]benzoate]: the inhibition at 1 µM in assay [2] turned out to be 37%. Moreover, in assay [3], the BTX inhibition is given as 51.

`CCCc1c(C(=O)N2CCC3(CC2)NC(Cc2ccccc2)C(=O)N3CC(=O)OCC)cnn1-c1ccccc1` (centres unmarked) [Example 306, Ethyl [3-benzyl-2-oxo-8-(1-phenyl-5-propyl-1H-pyrazole-4-carbonyl)-1,4,8-triazaspiro[4,5]dec-1-yl]acetate]: in assay [2], the inhibition at 1 µM came to 85%. The same compound yielded a BTX inhibition in assay [3] of 68.

For the compound `Cc1cc(C)cc(CN2C(=O)C(CC(C)C)NC23CCN(C(=O)CN(C)C)CC3)c1` (centres unmarked) [Example 309, 8-(2-Dimethylaminoacetyl)-1-(3,5-dimethylbenzyl)-3-isobutyl-1,4,8-triazaspiro[4,5]decan-2-one], the inhibition at 1 µM in assay [2] is 43%. The BTX inhibition in assay [3] came to 82.

For `CCCc1ccc(C(=O)N2CCC3(CC2)NC(CC(C)C)C(=O)N3Cc2c(Cl)cccc2Cl)cc1` (centres unmarked) [Example 317, 1-(2,6-Dichlorobenzyl)-3-isobutyl-8-(4-propylbenzoyl)-1,4,8-triazaspiro[4,5]decan-2-one], the inhibition at 1 µM in assay [2] is 33%. Further, the BTX inhibition in assay [3] is recorded as 62.

For the compound `C=CCN1C(=O)C(CCSC)NC12CCN(C(=O)c1cnn(-c3ccccc3)c1CCC)CC2` (centres unmarked) [Example 323, 1-Allyl-3-(2-methylsulfanylethyl)-8-(1-phenyl-5-propyl-1H-pyrazole-4-carbonyl)-1,4,8-triazaspiro[4,5]decan-2-one], the inhibition at 1 µM in assay [2] came to 33%. In assay [3], this compound came in with a BTX inhibition of 43.

Turning to `Cc1ccc(C(=O)N2CCC3(CC2)NC(CC(C)C)C(=O)N3Cc2c(Cl)cccc2Cl)c(F)c1F` (centres unmarked) [Example 324, 1-(2,6-Dichlorobenzyl)-8-(2,3-difluoro-4-methylbenzoyl)-3-isobutyl-1,4,8-triazaspiro[4,5]decan-2-one], the inhibition at 1 µM in assay [2] is 31%. The same compound yielded a BTX inhibition in assay [3] of 62.

As for `CCOC(=O)CN1C(=O)C(Cc2ccccc2)NC12CCN(C(=O)COCc1ccccc1)CC2` (centres unmarked) [Example 329, Ethyl [3-benzyl-8-(2-benzyloxyacetyl)-2-oxo-1,4,8-triazaspiro[4,5]dec-1-yl]acetate], the inhibition at 1 µM in assay [2] was 55%. In addition, the BTX inhibition in assay [3] is 43.

For the compound `C=CCN1C(=O)C(CCSC)NC12CCN(C(=O)c1cc(C(C)(C)C)nn1C)CC2` (centres unmarked) [Example 330, 1-Allyl-8-(5-tert-butyl-2-methyl-2H-pyrazole-3-carbonyl)-3-(2-methylsulfanylethyl)-1,4,8-triazaspiro[4,5]decan-2-one], in assay [2], the inhibition at 1 µM amounted to 45%. Further, the BTX inhibition in assay [3] came to 31.
